Results published in patent US10316017B2, “COT modulators and methods of use thereof” (Gilead Sciences, Inc., priority 2015, dated 2019).

How the values were obtained:
[1] = tested on: TNFα production in LPS-stimulated human monocytes; test: Cot Monocyte TNFα Cell Based Assay; conditions: Homo sapiens, Monocyte, TNFα in LPS-stimulated human monocytes; read-out: EC50 TNF
How it was run: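 Human monocytes (5,000 cells/well) pretreated with compound for 1 hour at 37° C (0.5% DMSO), then stimulated with 50 pg/ml LPS for 4 hours. Total TNFα measured by TR-FRET after overnight antibody incubation at room temp, expressed as percent of control between unstimulated and stimulated cells.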

[2] = biological target: T1, human Cot catalytic domain (30-397 amino acids) (Homo sapiens, UniProt P41279); test: High Throughput Cot Biochemical Assay (KinEASE TR-FRET); conditions: Cot KinEASE TR-FRET (HTRF) biochemical assay, 400 μM ATP; read-out: IC50 HTRF
T1 construct: Purified recombinant human Cot catalytic domain (30-397 amino acids) was purchased from Cama Biosciences; purchased Cama Biosciences (so in the source)
How it was run: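 Recombinant human Cot catalytic domain (aa 30-397), 5 nM, with 1 μM STK3 peptide and 400 μM ATP in MOPS pH 7.0 buffer with MgOAc, DTT, BSA, NP-40, glycerol, 0.1% DMSO. Phosphorylated XL665-peptide detected by Eu-[…] antibody TR-FRET.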

T1 sequence (P41279 30-397): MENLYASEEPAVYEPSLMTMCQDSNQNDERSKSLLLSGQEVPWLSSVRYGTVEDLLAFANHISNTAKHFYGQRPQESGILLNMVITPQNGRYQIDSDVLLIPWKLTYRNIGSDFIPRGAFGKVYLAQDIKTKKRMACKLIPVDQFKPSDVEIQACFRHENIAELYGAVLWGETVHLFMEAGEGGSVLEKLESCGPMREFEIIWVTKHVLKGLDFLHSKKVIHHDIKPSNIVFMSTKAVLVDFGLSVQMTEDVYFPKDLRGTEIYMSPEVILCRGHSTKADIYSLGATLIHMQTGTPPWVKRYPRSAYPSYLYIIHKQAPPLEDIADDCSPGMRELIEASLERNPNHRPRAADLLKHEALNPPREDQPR

Structure (SMILES) | EC50 [1] [nM] | IC50 [2] [nM]
[2H][C@](Nc1cc(Cl)c2ncc(C#N)c(NCC(C)(C)C)c2c1)(c1ccccc1)c1cn(C2CC2)nn1 [Example 312, (S)-8-chloro-6-(((1-cyclopropyl-1H-1,2,3-triazol-4-yl)(phenyl)methyl-d)amino)-4-(neopentylamino)quinoline-3-carbonitrile] | 177 | 5
[2H][C@](Nc1cc(Cl)c2ncc(C#N)c(N[C@@H]3CCC[C@H](O)C3)c2c1)(c1ccc(F)cc1)c1cn(C2CC2)nn1 [Example 314, 8-chloro-6-(((S)-(1-cyclopropyl-1H-1,2,3-triazol-4-yl)(4-fluorophenyl)methyl-d)amino)-4-(((1R,3S)-3-hydroxycyclohexyl)amino) quinoline-3-carbonitrile] | 6390 | 1330
[2H][C@](Nc1cc(Cl)c2ncc(C#N)c(N[C@H]3CCC[C@@H](O)C3)c2c1)(c1ccc(F)cc1)c1cn(C2CC2)nn1 [Example 315, 8-chloro-6-(((S)-(1-cyclopropyl-1H-1,2,3-triazol-4-yl)(4-fluorophenyl)methyl-d)amino)-4-(((1S,3R)-3-hydroxycyclohexyl)amino) quinoline-3-carbonitrile] | 1010 | 134
[2H][C@](Nc1cc(Cl)c2ncc(C#N)c(N[C@@H]3CCC[C@@H](O)C3)c2c1)(c1ccc(F)cc1)c1cn(C2CC2)nn1 [Example 316, 8-chloro-6-(((S)-(1-cyclopropyl-1H-1,2,3-triazol-4-yl)(4-fluorophenyl)methyl-d)amino)-4-(((1R,3R)-3-hydroxycyclohexyl)amino) quinoline-3-carbonitrile] | 3640 | 1820
[2H][C@](Nc1cc(Cl)c2ncc(C#N)c(N[C@@H]3CCCCC3(C)C)c2c1)(c1ccc(F)cc1)c1cn(C2CC2)nn1 [Example 318, 8-chloro-6-(((S)-(1-cyclopropyl-1H-1,2,3-triazol-4-yl)(4-fluorophenyl)methyl-d)amino)-4-(((R)-2,2-dimethylcyclohexyl)amino) quinoline-3-carbonitrile] | 451 | 34
[2H][C@](Nc1cc(Cl)c2ncc(C#N)c(NC3CCCCC3C)c2c1)(c1ccc(F)cc1)c1cn(C2CC2)nn1 (stereo partly drawn) [Example 321, 8-chloro-6-(((S)-(1-cyclopropyl-1H-1,2,3-triazol-4-yl)(4-fluorophenyl)methyl-d)amino)-4-((2-methylcyclohexyl)amino) quinoline-3-carbonitrile] | 391 | 159
[2H]C(Nc1cc(Cl)c2ncc(C#N)c(N[C@H](CC)c3ccccc3)c2c1)(c1ccccc1Cl)c1nn[nH]c1C (stereo partly drawn) [Example 326, 8-chloro-6-(((2-chlorophenyl) (5-methyl-1H-1,2,3-triazol-4-yl)methyl-d)amino)-4-(((R)-1-phenylpropyl)amino)quinoline-3-carbonitrile] | 1960 | 199
[2H][C@](Nc1cc(Cl)c2ncc(C#N)c(NCC(C)(C)C)c2c1)(c1cccc(C#N)c1)c1cn(-c2cccnc2)nn1 [Example 327, (S)-8-chloro-6-(((3-cyanophenyl)(1-(pyridin-3-yl)-1H-1,2,3-triazo1-4-yl)methyl-d)amino)-4-(neopentylamino)quinoline-3-carbonitrile] | 166 | 4
N#Cc1ccccc1[C@H](Nc1cc(Cl)c2ncc(C#N)c(Nc3cnc(F)c(F)c3)c2c1)c1c[nH]nn1 [Example 328, (S)-8-chloro-6-(((2-cyanophenyl)(1H-1,2,3-triazol-4-yl)methyl)amino)-4-((5,6-difluoropyridin-3-yl)amino)quinoline-3-carbonitrile] | 1240 | 24
[2H][C@](Nc1cc(Cl)c2ncc(C#N)c(Nc3cnc(F)c(F)c3)c2c1)(c1ccc(F)cc1)c1cn(Cc2c(F)cccc2F)nn1 [Example 329, (S)-8-chloro-6-(((1-(2,6-difluorobenzyl)-1H-1,2,3-triazol-4-yl)(4-fluorophenyl)methyl-d)amino)-4-((5,6-difluoropyridin-3-yl)amino)quinoline-3-carbonitrile] | 808 | 32
[2H][C@](Nc1cc(Cl)c2ncc(C#N)c(Nc3cnc(F)c(F)c3)c2c1)(c1ccc(F)cc1)c1cnn(CF)n1 [Example 330, (S)-8-chloro-4-((5,6-difluoropyridin-3-yl)amino)-6-(((2-(fluoromethyl)-2H-1,2,3-triazol-4-yl)(4-fluorophenyl)methyl-d)amino)quinoline-3-carbonitrile] | > 10000 | 1420
[2H][C@](Nc1cc(Cl)c2ncc(C#N)c(N[C@H](CC#N)c3ccccc3)c2c1)(c1ccc(F)cc1)c1cn(C2CC2)nn1 [Example 331, 8-chloro-4-(((R)-2-cyano-1-phenylethyl)amino)-6-(((S)-(1-cyclopropyl-1H-1,2,3-triazol-4-yl)(4-fluorophenyl)methyl-d)amino)quinoline-3-carbonitrile] | 75 | 4
[2H][C@](Nc1cc(Cl)c2ncc(C#N)c(N[C@@H](CC#N)c3ccccc3)c2c1)(c1ccc(F)cc1)c1cn(C2CC2)nn1 [Example 334, 8-chloro-4-(((S)-2-cyano-1-phenylethyl)amino)-6-(((S)-(1-cyclopropyl-1H-1,2,3-triazol-4-yl)(4-fluorophenyl)methyl-d)amino)quinoline-3-carbonitrile] | > 10000 | 258
[2H][C@](Nc1cc(Cl)c2ncc(C#N)c(NCC(C)(C)C)c2c1)(c1ccc(F)cc1)c1cn(-c2cccnc2)nn1 [Example 335, (S)-8-chloro-6-(((4-fluorophenyl)(1-(pyridin-3-yl)-1H-1,2,3-triazol-4-yl)methyl-d)amino)-4-(neopentylamino)quinoline-3-carbonitrile] | 204 | 40
[2H][C@](Nc1cc(Cl)c2ncc(C#N)c(Nc3cnc(F)c(Cl)c3)c2c1)(c1ccc(F)cc1)c1cn(C2CC2)nn1 [Example 338, (S)-8-chloro-4-((5-chloro-6-fluoropyridin-3-yl)amino)-6-(((1-cyclopropyl-1H-1,2,3-triazol-4-yl)(4-fluorophenyl)methyl-d)amino)quinoline-3-carbonitrile] | 183 | 8

Further compounds by falling EC50 [1], results first:

EC50 [1] [nM] | IC50 [2] [nM] | Structure (SMILES)
1600 | 82 | N#Cc1cnc2c(Cl)cc(N[C@@H](c3ccc(F)cc3)c3cn(C4CC4)nn3)cc2c1NC(CF)c1ccccc1 (stereo partly drawn) [Example 323, 8-chloro-6-(((S)-(1-cyclopropyl-1H-1,2,3-triazol-4-yl)(4-fluorophenyl)methyl)amino)-4-((2-fluoro-1-phenylethyl)amino)quinoline-3-carbonitrile]
959 | 140 | N#Cc1cnc2c(Cl)cc(N[C@@H](c3ccc(F)cc3)c3cn(C4CC4)nn3)cc2c1NC(CN1CCOCC1)c1ccccc1 (stereo partly drawn) [Example 322, 8-chloro-6-(((S)-(1-cyclopropyl-1H-1,2,3-triazol-4-yl)(4-fluorophenyl)methyl)amino)-4-((2-morpholino-1-phenylethyl)amino)quinoline-3-carbonitrile]
674 | 49 | N#Cc1cnc2c(Cl)cc(N[C@@H](c3ccc(F)cc3)c3cn(-c4ccccc4F)nn3)cc2c1Nc1cnc(F)c(F)c1 [Example 337, (S)-8-chloro-4-((5,6-difluoropyridin-3-yl)amino)-6-(((4-fluorophenyl) (1-(2-fluorophenyl)-1H-1,2,3-triazol-4-yl)methyl)amino)quinoline-3-carbonitrile]
619 | 71 | N#Cc1cnc2c(Cl)cc(N[C@@H](c3ccc(F)cc3)c3cn(-c4ccccc4C(F)(F)F)nn3)cc2c1Nc1cnc(F)c(F)c1 [Example 336, (S)-8-chloro-4-((5,6-difluoropyridin-3-yl)amino)-6-(((4-fluorophenyl)(1-(2-(trifluoromethyl)phenyl)-1H-1,2,3-triazol-4-yl)methyl)amino)quinoline-3-carbonitrile]
527 | 39 | [2H][C@](Nc1cc(Cl)c2ncc(C#N)c(N[C@H]3CCC[C@H](O)C3)c2c1)(c1ccc(F)cc1)c1cn(C2CC2)nn1 [Example 313, 8-chloro-6-(((S)-(1-cyclopropyl-1H-1,2,3-triazol-4-yl)(4-fluorophenyl)methyl-d)amino)-4-(((1S,3S)-3-hydroxycyclohexyl)amino) quinoline-3-carbonitrile]
450 | 4 | [2H][C@](Nc1cc(Cl)c2ncc(C#N)c(NCC(C)(C)C)c2c1)(c1cccc(C#N)c1)c1c[nH]nn1 [Example 324, (S)-8-chloro-6-(((3-cyanophenyl)(1H-1,2,3-triazol-4-yl)methyl-d)amino)-4-(neopentylamino) quinoline-3-carbonitrile]
356 | 8 | N#Cc1ccccc1[C@H](Nc1cc(Cl)c2ncc(C#N)c(Nc3cnc(F)c(F)c3)c2c1)c1cn(C2CC2)nn1 [Example 325, (S)-8-chloro-6-(((2-cyanophenyl)(1-cyclopropyl-1H-1,2,3-triazol-4-yl)methyl)amino)-4-((5,6-difluoropyridin-3-yl)amino)quinoline-3-carbonitrile]
260 | 9 | [2H][C@](Nc1cc(Cl)c2ncc(C#N)c(NCC3(C)CCOCC3)c2c1)(c1ccc(F)cc1)c1cn(C2CC2)nn1 [Example 333, (S)-8-chloro-6-(((1-cyclopropyl-1H-1,2,3-triazol-4-yl)(4-fluorophenyl)methyl-d)amino)-4-(((4-methyltetrahydro-2H-pyran-4-yl)methyl)amino) quinoline-3-carbonitrile]
